Here are results for three molecules from patent US20070298994A1, “Use of 3-Mercapto-3-Methyl-Hexan-1-Ol for Use as Malodour Standard” (SYMRISE GMBH & CO. KG, priority 2004, published 2007).

Structures are written as SMILES.

Test [1] can be described thus: Odour threshold value in air on a dynamic olfactometer. To be noted: for odour threshold value in air: dynamic olfactometer, mean of 24 measured values (8 trained assessors, three passes), refers to the pure substance. On the procedure:
The odour threshold values in air were determined for the substance (E)-3-methyl-2-hexenoic acid also occurring in sweat and 3-mercapto-3-methyl-hexan-1-ol recently found in sweat.
The odour threshold value denotes the concentration of an olfactorily perceptible substance in air at which this can be distinguished from the odourless ambient air.
Determination is carried out on a dynamic olfactometer. A sample of 20 μl each of dilute solutions of the components is placed in a container with 7 l air. The samples in the olfactometer are diluted clearly below the odour threshold by defined addition of odourless air. In the olfactometer, the concentrations in the sample air are increased little by little until all the assessors have characterised a perception. A group of 8 trained assessors determines the concentration of the samples to be distinguished in odour from air on three passes each so that the mean value of 24 measured values leads to the respective concentrations. The (E)-3-methyl-2-hexenoic acid is measured at 1% and the 3-mercapto-3-methyl-hexan-1-ol at 0.1% in odourless dipropylene glycol. The different dilutions were taken into account for calculating the threshold values. The threshold values refer to the pure substances. The threshold value of the (E)-3-methyl-2-hexenoic acid was determined at 15.1 ng/l air. The threshold value for the 3-mercapto-3-methyl-hexan-1-ol was determined at 0.015 ng/l air. All assessors evaluated the threshold value of 3-mercapto-3-methyl-hexan-1-ol lower than (E)-3-methyl-2-hexenoic acid in all passes.

Test [2] in a line: Raw material test against sweat odour (masking of malodour standard, assessor panel).
Test [3] in a line: Application test in the formulations (smelling strips, assessor panel). Set-up: Malodour reduction value: scale not given here. To be noted: smelling strip, 1 μl 3-mercapto-3-methyl-hexan-1-ol solution (0.001% in DPG), at least 12 experts. On the procedure: Mixtures A-C and the fragrances of Table 4 were incorporated in the formulations of Examples 3-12 as perfume oil. […] The coding smelling strips were evaluated sensorily by a group of assessors of at least 12 experts.

The mark [4] stands for this setting: Table 2 (raw materials without adequate malodour-reducing action), 1 μl fragrance + 5 μl 3-mercapto-3-methyl-hexan-1-ol (0.1% in DPG) in 7 l air, 15 h, scale 1 to 9, standard = 6.
Where [5] appears, read: Table 4, tests with the mixtures (Example 2), according to the raw material test method.
[6] abbreviates: in EXAMPLE 3: ROLL-ON DEODORANT GEL.
The mark [7] stands for this setting: in EXAMPLE 6: GEL AIR FRESHENER
The mark [8] stands for this setting: in EXAMPLE 7: AEROSOL DEODORANT
The mark [9] stands for this setting: in EXAMPLE 9: HAIR SETTING LOTION.

Regarding `CCC/C(C)=C/C(=O)O` [(E)-3-methyl-2-hexenoic acid, reference compound], in test [1], the “odour threshold value in air” value is listed as 15.1 ng/l air.

Turning to `CCOC(C)=O` [ETHYL ACETATE], the Increase in intensity is listed as −0.9 in test [2] (setting [4]); −1.1 in test [2] (setting [5]); −0.1 in test [3] (setting [6]); 0.0 in test [3] (in EXAMPLE 4: W/O CREAM); 0.5 in test [3] (in EXAMPLE 5: O/W LOTION); 0.5 in test [3] (setting [7]). Besides, the Increase in intensity in test [3] (setting [8]) is listed as −0.5; in test [3] (in EXAMPLE 8: FOOT CREAM), 0.5; in test [3] (setting [9]), −0.5; in test [3] (in EXAMPLE 10: CARE MASK), 0.8; in test [3] (in EXAMPLE 11: SKIN OIL), −0.5; in test [3] (in EXAMPLE 12: OINTMENT), −0.6. Also, the Malodour reduction value in test [2] (setting [4]) was determined as 1.1; in test [2] (setting [5]), 1.1; in test [3] (setting [6]) it was 0.5; in test [3] (in EXAMPLE 4: W/O CREAM) it was 1.0; in test [3] (in EXAMPLE 5: O/W LOTION), 0.5; in test [3] (setting [7]), 0.8. Further, the Malodour reduction value is 1.1 in test [3] (setting [8]); 0.8 in test [3] (in EXAMPLE 8: FOOT CREAM); 1.2 in test [3] (setting [9]); 1.2 in test [3] (in EXAMPLE 10: CARE MASK); 0.3 in test [3] (in EXAMPLE 11: SKIN OIL); 0.0 in test [3] (in EXAMPLE 12: OINTMENT).

Turning to `CCCC(C)(S)CCO` (stereo not drawn) [3-mercapto-3-methyl-hexan-1-ol], in test [1], the “odour threshold value in air” value is reported as 0.015 ng/l air. Further, the “factor by which threshold value is lower than that of (E)-3-methyl-2-hexenoic acid” value in test [1] (odour threshold values in air) came out at 1000.
